One assay deals with CYP2C9 (Homo sapiens, UniProt P11712). Description: biochemical.
Another assay has as its target CYP3A4 (Homo sapiens, UniProt P08684). Kind of assay: biochemical.
The target of another assay is T1, CYP1A2 (Homo sapiens, UniProt P05177).
T1 sequence (P05177 1-516): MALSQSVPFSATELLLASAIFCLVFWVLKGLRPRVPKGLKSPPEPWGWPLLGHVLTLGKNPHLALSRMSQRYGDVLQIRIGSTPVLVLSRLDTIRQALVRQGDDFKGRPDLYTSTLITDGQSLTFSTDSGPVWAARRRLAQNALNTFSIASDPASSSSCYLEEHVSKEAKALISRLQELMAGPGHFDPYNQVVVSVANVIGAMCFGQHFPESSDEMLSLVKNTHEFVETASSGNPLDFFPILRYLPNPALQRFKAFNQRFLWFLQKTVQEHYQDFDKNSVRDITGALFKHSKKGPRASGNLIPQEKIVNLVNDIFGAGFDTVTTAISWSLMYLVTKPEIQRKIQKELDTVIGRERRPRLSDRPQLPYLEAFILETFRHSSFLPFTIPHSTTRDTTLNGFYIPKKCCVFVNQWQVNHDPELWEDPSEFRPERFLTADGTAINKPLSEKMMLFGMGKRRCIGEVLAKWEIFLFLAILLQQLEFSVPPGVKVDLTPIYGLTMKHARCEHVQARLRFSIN
Description: biochemical.

For assay [1], the target named is human opioid receptor-like (ORL-1) (Homo sapiens, UniProt P41146). Description: ORL-1 receptor [35S]GTPγS functional binding assay. In kind it is biochemical. (Binding of GTPγS marks nucleotide exchange on a G protein.)
A further assay deals with CYP2C19 (Homo sapiens, UniProt P33261). Description: biochemical.
The target in the next assay is CYP2D6 (Homo sapiens, UniProt P10635). Description: biochemical.
Assay [2] has as its target human kappa opioid receptor (Homo sapiens, UniProt P41145). Description: In vitro kappa-opioid receptor binding assay ([3H]-U69,593 displacement).
The target in a further assay is delta opioid receptor (Homo sapiens, UniProt P41143). Description: In vitro delta-opioid receptor binding assay ([3H]-Naltrindole displacement).
The target in the next assay is human μ-opioid receptors (Homo sapiens, UniProt P35372). Description: In vitro mu-opioid receptor binding assay ([3H]-diprenorphine displacement). To be noted: read-out: Mu opioid receptor Ki [Average ± Std Deviation].

Some results are limits rather than exact numbers.

Chain of delta opioid receptor (P41143 whole entry): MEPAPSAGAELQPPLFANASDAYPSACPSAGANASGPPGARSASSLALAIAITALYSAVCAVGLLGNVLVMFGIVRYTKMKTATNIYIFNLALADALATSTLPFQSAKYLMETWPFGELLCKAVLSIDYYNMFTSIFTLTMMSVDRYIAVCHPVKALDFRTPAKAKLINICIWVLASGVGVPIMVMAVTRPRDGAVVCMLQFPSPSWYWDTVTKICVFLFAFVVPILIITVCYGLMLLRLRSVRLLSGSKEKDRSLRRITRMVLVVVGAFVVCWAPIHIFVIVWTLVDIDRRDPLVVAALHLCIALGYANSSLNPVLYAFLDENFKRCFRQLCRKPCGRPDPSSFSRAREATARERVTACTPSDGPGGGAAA
Chain of human μ-opioid receptors (P35372 whole entry): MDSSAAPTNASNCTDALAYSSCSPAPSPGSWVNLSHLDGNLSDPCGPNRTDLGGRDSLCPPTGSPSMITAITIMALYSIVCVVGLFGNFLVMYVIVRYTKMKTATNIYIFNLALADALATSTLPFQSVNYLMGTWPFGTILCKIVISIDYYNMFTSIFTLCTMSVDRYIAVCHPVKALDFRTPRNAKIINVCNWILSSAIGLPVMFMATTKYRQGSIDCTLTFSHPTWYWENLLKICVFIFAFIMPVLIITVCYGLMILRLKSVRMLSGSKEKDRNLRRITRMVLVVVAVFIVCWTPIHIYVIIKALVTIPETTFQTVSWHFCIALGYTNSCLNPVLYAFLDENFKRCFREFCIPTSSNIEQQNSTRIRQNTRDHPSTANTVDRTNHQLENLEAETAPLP
Chain of CYP3A4 (P08684 whole entry): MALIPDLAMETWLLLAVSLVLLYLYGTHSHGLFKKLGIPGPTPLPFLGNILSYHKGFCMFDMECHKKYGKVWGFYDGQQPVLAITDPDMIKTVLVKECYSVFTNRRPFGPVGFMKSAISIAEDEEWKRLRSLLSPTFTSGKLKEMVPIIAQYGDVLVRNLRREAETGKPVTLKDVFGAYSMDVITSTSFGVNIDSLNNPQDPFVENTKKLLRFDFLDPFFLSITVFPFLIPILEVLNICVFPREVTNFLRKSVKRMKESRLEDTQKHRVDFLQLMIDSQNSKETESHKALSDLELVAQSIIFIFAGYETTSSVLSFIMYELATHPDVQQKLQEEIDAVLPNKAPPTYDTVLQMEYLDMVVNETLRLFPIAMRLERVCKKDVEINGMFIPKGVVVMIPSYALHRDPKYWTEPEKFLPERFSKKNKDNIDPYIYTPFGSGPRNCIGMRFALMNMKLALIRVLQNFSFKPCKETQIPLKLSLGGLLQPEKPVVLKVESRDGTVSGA
Chain of CYP2C9 (P11712 whole entry): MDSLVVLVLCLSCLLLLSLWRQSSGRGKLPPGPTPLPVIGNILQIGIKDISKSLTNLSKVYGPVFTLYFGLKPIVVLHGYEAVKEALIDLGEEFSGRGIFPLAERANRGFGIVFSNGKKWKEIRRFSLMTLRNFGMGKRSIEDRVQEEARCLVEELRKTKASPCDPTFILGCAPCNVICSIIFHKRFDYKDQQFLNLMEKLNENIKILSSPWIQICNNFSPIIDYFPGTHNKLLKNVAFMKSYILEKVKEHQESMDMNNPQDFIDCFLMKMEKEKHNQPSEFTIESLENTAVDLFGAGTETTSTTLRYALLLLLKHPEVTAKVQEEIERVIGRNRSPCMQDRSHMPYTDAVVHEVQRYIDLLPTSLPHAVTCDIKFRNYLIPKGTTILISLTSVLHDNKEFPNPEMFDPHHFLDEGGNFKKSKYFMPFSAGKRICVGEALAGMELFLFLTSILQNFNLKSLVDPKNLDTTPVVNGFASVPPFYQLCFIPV
Chain of CYP2D6 (P10635 whole entry): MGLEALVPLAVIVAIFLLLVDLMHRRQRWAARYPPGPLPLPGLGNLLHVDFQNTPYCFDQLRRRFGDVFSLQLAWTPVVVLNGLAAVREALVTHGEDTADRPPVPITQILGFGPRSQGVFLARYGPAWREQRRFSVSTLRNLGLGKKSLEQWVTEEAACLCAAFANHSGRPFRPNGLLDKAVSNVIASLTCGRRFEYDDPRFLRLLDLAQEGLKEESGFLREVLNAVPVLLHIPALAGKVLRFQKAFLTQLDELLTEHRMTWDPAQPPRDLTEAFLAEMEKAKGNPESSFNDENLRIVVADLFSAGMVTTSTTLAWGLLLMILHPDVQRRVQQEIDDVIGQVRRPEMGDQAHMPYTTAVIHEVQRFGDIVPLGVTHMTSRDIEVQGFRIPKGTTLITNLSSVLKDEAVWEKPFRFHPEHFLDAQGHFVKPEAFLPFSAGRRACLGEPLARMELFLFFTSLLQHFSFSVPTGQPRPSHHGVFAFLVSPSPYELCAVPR
Chain of human kappa opioid receptor (P41145 whole entry): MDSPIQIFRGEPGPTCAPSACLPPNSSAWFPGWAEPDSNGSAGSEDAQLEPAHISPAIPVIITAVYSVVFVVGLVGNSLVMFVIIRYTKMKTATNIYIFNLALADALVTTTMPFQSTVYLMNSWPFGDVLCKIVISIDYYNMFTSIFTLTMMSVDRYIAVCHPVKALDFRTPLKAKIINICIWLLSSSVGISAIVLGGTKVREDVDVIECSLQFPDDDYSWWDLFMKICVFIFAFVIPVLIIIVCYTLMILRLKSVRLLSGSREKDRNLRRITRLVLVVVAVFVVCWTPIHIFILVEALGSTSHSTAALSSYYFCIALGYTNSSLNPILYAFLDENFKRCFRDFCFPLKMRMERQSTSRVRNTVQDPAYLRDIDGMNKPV
Chain of human opioid receptor-like (ORL-1) (P41146 whole entry): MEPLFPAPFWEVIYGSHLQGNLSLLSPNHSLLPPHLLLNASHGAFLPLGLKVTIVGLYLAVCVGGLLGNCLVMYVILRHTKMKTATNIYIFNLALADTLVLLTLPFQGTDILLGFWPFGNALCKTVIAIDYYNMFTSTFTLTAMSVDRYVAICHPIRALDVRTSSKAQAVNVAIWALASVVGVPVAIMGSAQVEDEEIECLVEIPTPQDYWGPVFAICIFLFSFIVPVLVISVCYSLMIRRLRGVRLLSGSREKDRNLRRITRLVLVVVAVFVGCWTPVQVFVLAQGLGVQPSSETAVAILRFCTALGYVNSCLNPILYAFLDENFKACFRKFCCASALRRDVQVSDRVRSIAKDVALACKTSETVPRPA
Chain of CYP2C19 (P33261 whole entry): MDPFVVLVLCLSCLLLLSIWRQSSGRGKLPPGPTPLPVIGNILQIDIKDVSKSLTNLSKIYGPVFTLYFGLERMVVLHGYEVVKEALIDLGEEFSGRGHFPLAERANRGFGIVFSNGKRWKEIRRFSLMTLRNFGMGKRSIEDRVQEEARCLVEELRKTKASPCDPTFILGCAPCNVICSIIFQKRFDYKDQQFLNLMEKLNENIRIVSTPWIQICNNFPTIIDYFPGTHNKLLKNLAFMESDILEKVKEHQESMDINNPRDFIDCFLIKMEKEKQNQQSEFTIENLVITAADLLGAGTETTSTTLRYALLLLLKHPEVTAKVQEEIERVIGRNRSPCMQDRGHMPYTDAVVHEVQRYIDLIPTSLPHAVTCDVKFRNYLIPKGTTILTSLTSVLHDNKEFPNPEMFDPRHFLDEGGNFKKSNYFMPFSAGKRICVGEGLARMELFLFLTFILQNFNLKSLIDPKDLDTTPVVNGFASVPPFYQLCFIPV

For `CO/N=C(\CCC(=O)O)c1nc2ccccc2n([C@H]2C[C@H]3CCC[C@@H](C2)N3C2CCCCCCCC2)c1=O` [Compound 10, 4-[4-((1R,3R,7S)-9-cyclononyl-9-aza-bicyclo[3.3.1]non-3-yl)-3-oxo-3,4-dihydro-quinoxalin-2-yl]-4-methoxyimino-butyric acid], the concentration for half-maximal inhibition (IC50) on CYP2C9, against CYP3A4, against CYP1A2, on CYP2C19 and against CYP2D6 was more than 20 µM each time. The compound further registered an EC50 in assay [1] of 0.104 ± 0.012 µM.

On to `CON=C(CCC(=O)O)c1nc2ccccc2n([C@H]2C[C@H]3CC[C@@H](C2)N3C2CC3CCCC(C3)C2)c1=O` (stereo partly drawn) [Compound 14, 4-(4-((1R,3R)-8-(bicyclo[3.3.1]nonan-3-yl)-8-azabicyclo[3.2.1]octan-3-yl)-3-oxo-3,4-dihydroquinoxalin-2-yl)-4-(methoxyimino)butanoic acid], for which the Ki in assay [2] was 2.76 ± 0.245 µM; on delta opioid receptor it was more than 20 µM; on human μ-opioid receptors, 2.3 ± 0.153 µM. Moreover, the IC50 on CYP2C9, against CYP3A4, at CYP1A2, at CYP2C19 and against CYP2D6 was more than 20 µM throughout. This compound also displayed an EC50 in assay [1] of 0.15 ± 0.014 µM.

For `C/C(=N\OCC(=O)O)c1nc2ccccc2n([C@H]2C[C@H]3CCC[C@@H](C2)N3C2CCCCCCCCC2)c1=O` [Compound 21], the half-maximal inhibitory concentration (IC50) against CYP2C9, at CYP3A4, at CYP1A2, against CYP2C19 and at CYP2D6 was more than 20 µM throughout. In addition, in assay [1], the EC50 was 0.239 ± 0.0254 µM.

`NC(=O)/C(=N\OCC(=O)O)c1nc2ccccc2n([C@H]2C[C@H]3CCC[C@@H](C2)N3C2CC3CCCC(C3)C2)c1=O` (stereo partly drawn) [Compound 40]: the Ki in [2] is 1.7 ± 0.278 µM; on delta opioid receptor, more than 20 µM; at human μ-opioid receptors, 2.71 ± 0.285 µM. The half-inhibitory concentration (IC50) against CYP2C9, against CYP3A4, against CYP1A2, at CYP2C19 and on CYP2D6 was more than 20 µM each time. This compound displayed an EC50 in assay [1] of 0.113 ± 0.031 µM.

For `CON=C(CCC(=O)O)c1nc2ccccc2n([C@H]2C[C@H]3COC[C@@H](C2)N3C2CC3CCCCC(C3)C2)c1=O` (stereo partly drawn) [Compound 48], the Ki in assay [2] was more than 20 µM; at delta opioid receptor, more than 20 µM; on human μ-opioid receptors, 15.6 µM. Further, the concentration for half-maximal inhibition (IC50) against CYP2C9, at CYP3A4, against CYP1A2, at CYP2C19 and against CYP2D6 was more than 20 µM throughout. Further, the EC50 in assay [1] is 0.149 ± 0.029 µM.

Turning to `NC(=O)C(=NOCC(=O)O)c1nc2ccccc2n([C@H]2C[C@H]3CCC[C@@H](C2)N3C2CC3CCCCC(C3)C2)c1=O` (stereo partly drawn) [Compound 55], the IC50 against CYP2C9, at CYP3A4, on CYP1A2, on CYP2C19 and at CYP2D6 was more than 20 µM each time.

On to `COCCO/N=C(\CCC(=O)O)c1nc2ccccc2n([C@H]2C[C@H]3CCC[C@@H](C2)N3C2CC3CCCCC(C3)C2)c1=O` (stereo partly drawn) [Compound 56], for which the IC50 on CYP2C9, against CYP3A4, against CYP1A2, at CYP2C19 and against CYP2D6 was more than 20 µM each time.

Turning to `CC(C)(ON=C(C(N)=O)c1nc2ccccc2n([C@H]2C[C@H]3CCC[C@@H](C2)N3C2CC3CCCC(C3)C2)c1=O)C(=O)O` (stereo partly drawn) [Compound 57], the IC50 against CYP2C9, against CYP3A4, on CYP1A2, at CYP2C19 and on CYP2D6 was more than 20 µM each time.

In the case of `CNC(=O)CCC(=NOCC(=O)O)c1nc2ccccc2n([C@H]2C[C@H]3CCC[C@@H](C2)N3C2CC3CCCCC(C3)C2)c1=O` (stereo partly drawn) [Compound 58], the half-maximal inhibitory concentration (IC50) at CYP2C9, at CYP3A4, against CYP1A2, on CYP2C19 and on CYP2D6 was more than 20 µM throughout.

With `NC(=O)CCC(=NOCC(=O)O)c1nc2ccccc2n([C@H]2C[C@H]3CCC[C@@H](C2)N3C2CC3CCCCC(C3)C2)c1=O` (stereo partly drawn) [Compound 59], the half-inhibitory concentration (IC50) against CYP2C9, at CYP3A4, against CYP1A2, against CYP2C19 and on CYP2D6 was more than 20 µM in each case.

With `NC(=O)CO/N=C(\C(=O)O)c1nc2ccccc2n([C@H]2C[C@H]3CC[C@@H](C2)N3C2CC3CCCCC(C3)C2)c1=O` (stereo partly drawn) [Compound 60], the IC50 at CYP2C9, against CYP3A4, at CYP1A2, against CYP2C19 and on CYP2D6 was more than 20 µM throughout.

Consider `CC(C)(O/N=C(\C(=O)O)c1nc2ccccc2n([C@H]2C[C@H]3CC[C@@H](C2)N3C2CC3CCCCC(C3)C2)c1=O)C(N)=O` (stereo partly drawn) [Compound 61], for which the 50% inhibitory concentration (IC50) at CYP2C9, at CYP3A4, against CYP1A2, against CYP2C19 and at CYP2D6 was more than 20 µM throughout.

As for `CN(C)C(=O)CON=C(C(=O)O)c1nc2ccccc2n([C@H]2C[C@H]3CCC[C@@H](C2)N3C2CC3CCCC(C3)C2)c1=O` (stereo partly drawn) [Compound 63], the 50% inhibitory concentration (IC50) against CYP2C9, on CYP3A4, against CYP1A2, against CYP2C19 and at CYP2D6 was more than 20 µM each time.

Take `CNC(=O)CON=C(C(=O)O)c1nc2ccccc2n([C@H]2C[C@H]3CCC[C@@H](C2)N3C2CC3CCCC(C3)C2)c1=O` (stereo partly drawn) [Compound 64]: the IC50 on CYP2C9, at CYP3A4, against CYP1A2, on CYP2C19 and against CYP2D6 was more than 20 µM throughout.

As for `N#CC(=NOCC(=O)O)c1nc2ccccc2n([C@H]2C[C@H]3CCC[C@@H](C2)N3C2CC3CCCC(C3)C2)c1=O` (stereo partly drawn) [Compound 65, 2-((((4-((1R,1′R,3r,3′R,5S,5′S)-[3,9′-bi(9′-azabicyclo[3.3.1]nonan)]-3′-yl)-3-oxo-3,4-dihydroquinoxalin-2-yl)(cyano)methylene)amino)oxy)acetic acid], the concentration for half-maximal inhibition (IC50) against CYP2C9, against CYP3A4, against CYP1A2, at CYP2C19 and against CYP2D6 was more than 20 µM each time.

As for `NC(=O)CO/N=C(\C(N)=O)c1nc2ccccc2n([C@H]2C[C@H]3CCC[C@@H](C2)N3C2CC3CCCCC(C3)C2)c1=O` (stereo partly drawn) [Compound 66], the IC50 against CYP2C9, at CYP3A4, on CYP1A2, against CYP2C19 and at CYP2D6 was more than 20 µM throughout.

Consider `CC(C)ON=C(CCC(=O)O)c1nc2ccccc2n([C@H]2C[C@H]3CC[C@@H](C2)N3C2CC3CCCCC(C3)C2)c1=O` (stereo partly drawn) [Compound 67], for which the IC50 against CYP2C9, against CYP3A4, at CYP1A2, against CYP2C19 and against CYP2D6 was more than 20 µM each time.

The term IC50 denotes the concentration needed to halve the response being measured. A low value points to higher potency. Usually EC50 stands for the concentration at which the effect is half-maximal. Low values mean higher potency in that assay, high ones lower potency in that assay. As a reminder, the Ki is the equilibrium dissociation constant of an inhibitor or competing ligand from its target.

The values above are taken from patent US9040533B2, “Oxime-substituted-quinoxaline-type piperidine compounds as ORL-1 modulators” (priority 2012, dated 2015).
